Assay results as given in patent US9278067B2, “Encapsulation of plasmid DNA (lipogenes™) and therapeutic agents with nuclear localization signal/fusogenic peptide conjugates into targeted liposome complexes” (Regulon, Inc., priority 2000, dated 2016).

Tests used:
[1] = low concentrations (0.03-0.1 mM)
[2] = system: C-terminal fragments of the amyloid peptide; details: cited from earlier work
[3] = system: K562 human erythroleukemia cell cultures; experiment: Transfection of K562 cells with plasmid pCMVβ, beta-galactosidase reporter expression; format: cell-based; details: FIG. 2
[4] = system: neuronal cell; details: cited from earlier work
[5] = pH 7.4; cited from earlier work
[6] = system: complement system; details: cited from earlier work
[7] = system: isolated lysosomes; details: low concentrations of lipid; cited from earlier work
[8] = system: luciferase; details: cited from earlier work
[9] = system: several different types of cells; details: with monovalent cationic liposomal formulations (DC-Chol and lipofectin); cited from earlier work
[10] = cell culture; cited from earlier work

**Q.** With `NCCCNCCCCNCCCN` [Spermine] as the molecule, how does the transfection efficiency [1] read?
**A.** The transfection efficiency was “enhanced significantly transfection efficiency”.

**Q.** For apoE2: apolipoprotein E isoform, which “inhibition of amyloid peptide fusogenic and aggregational properties” value (shortened to “inhibition”) [2] is on record?
**A.** Its value is “potent inhibitors”.

**Q.** With polyhistidine as the molecule, how does the “DNA condensing reagent compared by level of expression of the reporter beta-galactosidase gene” value ([3]; 10 μg pCMVβ, polyK/polyR/polyH plus liposomes 7 nmoles/μg DNA) read?
**A.** Its value is “best DNA condensing reagent”.

**Q.** For “Non-aggregated amyloid beta-peptide (1-40): Alzheimer's beta-amyloid peptide 1-40, non-aggregated”, which “Properties: neuronal cell death” value [4] is on record?
**A.** Its value is “Induces apoptotic neuronal”.

**Q.** With `CC(C)CCC[C@@H](C)[C@H]1CC[C@H]2[C@@H]3CC=C4C[C@@H](OC(=O)NCCN(C)C)CC[C@]4(C)[C@H]3CC[C@]12C` [DC-cholesterol, 3β[N—(N′,N′-dimethylaminoethane)carbamoyl]cholesterol] as the molecule, how does the “cationic lipid compared by level of expression of the reporter beta-galactosidase gene” value ([3]; liposomes L2-L6 with DOPE) read?
**A.** Its value is “best cationic lipid”.

**Q.** And the charged fraction [5]?
**A.** The charged fraction was “about 50%”.

**Q.** Which “inhibition” value [2] does the source give for apoE3: apolipoprotein E isoform here?
**A.** Its value is “potent inhibitors”.

**Q.** With poly(ethyleneimine) as the molecule, how does the complement activation [6] read?
**A.** The complement activation was “Strong complement activation”.

**Q.** For `CCCCCCCCCCCCCCOCC(C[N+](C)(C)CCO)OCCCCCCCCCCCCCC.[Br-]` (centres unmarked) [DMRIE, N-[1-(2,3-dimyristyloxy)propyl]-N,N-dimethyl-N-(2-hydroxyethyl) ammonium bromide], which charged fraction [5] is on record?
**A.** The charged fraction was 100%.

**Q.** Which “free activity of β-galactosidase of isolated lysosomes (membrane destabilization)” value [7] does the source give for `CCCCCCCC/C=C\CCCCCCCC(=O)OCC(C[N+](C)(C)C)OC(=O)CCCCCCC/C=C\CCCCCCCC.[Cl-]` (centres unmarked) [DOTAP, N-(1-(2,3-dioleoyloxy)propyl)-N,N,N-trimethylammonium chloride] here?
**A.** The value was “striking increase in free activity of β-galactosidase”.

**Q.** What about the “increase of antisense activity of anti-luciferase oligonucleotide” value [8] of the same molecule?
**A.** Its value is “over 100 fold”.

**Q.** And the charged fraction [5]?
**A.** Its charged fraction is 100%.

**Q.** For Protamine sulfate, which “plasmid delivery into cells in vitro” value [9] is on record?
**A.** Its value is “enhanced plasmid delivery”.

**Q.** And the “efficiency of adenovirus-mediated gene transfer” value [10]?
**A.** Its value is “significantly increased”.

**Q.** Which complement activation [6] does the source give for `CCCCCCCCCCCCCCCCCCN(CCCCCCCCCCCCCCCCCC)C(=O)CNC(=O)C(CCCNCCCN)NCCCN` (centres unmarked) [DOGS, Dioctadecylamidoglycylspermine] here?
**A.** Its complement activation is “Strong complement activation”.

**Q.** For poly-L-lysine, which “efficiency of adenovirus-mediated gene transfer” value [10] is on record?
**A.** Its value is “significantly increased”.

**Q.** With apoE4: apolipoprotein E isoform as the molecule, how does the “inhibition” value [2] read?
**A.** The value was “not apoE4”.
